According to patent EP3911180B1, “PAENIBACILLUS WYNNII BETA-GALACTOSIDASE FOR THE PRODUCTION OF LACTOSE-DEPLETED AND GOS-ENRICHTED DAIRY PRODUCTS” (Universität Hohenheim, priority 2019, dated 2020):
“Also recorded” adds a separate entry of the source. Like-named read-outs stand apart in the source and are kept apart here.

Assays:
[1] = molecular target: T1, P. wynnii beta-galactosidase (SEQ ID NO: 1) (Paenibacillus wynnii, UniProt A0A098MAF9); test: Determination of KM with lactose as substrate; type: biochemical; conditions: Novo-buffer, 8 °C
T1 sequence (A0A098MAF9 1-1042): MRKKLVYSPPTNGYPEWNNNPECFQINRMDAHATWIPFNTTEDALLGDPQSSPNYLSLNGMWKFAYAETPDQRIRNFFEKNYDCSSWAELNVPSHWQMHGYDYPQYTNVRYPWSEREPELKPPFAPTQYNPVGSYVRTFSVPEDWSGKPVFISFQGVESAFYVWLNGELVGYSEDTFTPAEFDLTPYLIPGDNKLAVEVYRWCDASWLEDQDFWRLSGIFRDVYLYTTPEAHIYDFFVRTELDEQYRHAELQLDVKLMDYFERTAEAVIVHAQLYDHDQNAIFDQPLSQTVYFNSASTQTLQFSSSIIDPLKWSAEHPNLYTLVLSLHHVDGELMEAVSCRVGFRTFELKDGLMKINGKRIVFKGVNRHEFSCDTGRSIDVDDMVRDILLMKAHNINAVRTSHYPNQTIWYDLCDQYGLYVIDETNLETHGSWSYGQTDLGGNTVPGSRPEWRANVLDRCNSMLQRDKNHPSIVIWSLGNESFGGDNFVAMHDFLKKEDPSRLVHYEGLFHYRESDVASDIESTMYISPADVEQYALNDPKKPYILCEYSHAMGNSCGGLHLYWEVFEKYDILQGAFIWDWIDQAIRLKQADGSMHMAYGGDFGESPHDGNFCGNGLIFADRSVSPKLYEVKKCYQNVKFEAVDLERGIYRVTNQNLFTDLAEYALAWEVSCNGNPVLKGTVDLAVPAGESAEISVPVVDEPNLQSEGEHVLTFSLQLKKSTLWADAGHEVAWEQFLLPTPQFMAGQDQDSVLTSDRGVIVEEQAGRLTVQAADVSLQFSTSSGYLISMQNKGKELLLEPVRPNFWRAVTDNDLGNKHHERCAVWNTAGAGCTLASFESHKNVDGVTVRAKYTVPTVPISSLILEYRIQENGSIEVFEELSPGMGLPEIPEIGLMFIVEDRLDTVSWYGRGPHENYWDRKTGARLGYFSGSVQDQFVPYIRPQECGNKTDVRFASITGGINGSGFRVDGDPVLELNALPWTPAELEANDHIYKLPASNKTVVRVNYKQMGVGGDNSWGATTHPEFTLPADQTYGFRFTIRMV
Protocol: For the substrate solution 400 mM lactose was dissolved in Novo buffer (the composition of which is depicted in Table 4). The beta-galactosidase activity was determined in a thermo shaker in 1.5 mL reaction tubes at 8°C. The enzyme mix and the lactose solution were preincubated at 8 °C for 12 min. To start the enzymatic reaction 100 µL of the enzyme mix were added to 100 µL lactose solution. The reaction was carried out for 5 min at 8 °C. The reaction was stopped by adding 300 µL 1 M HClO4 to the enzyme-substrate-mix. The mix was kept on ice for 5 min before it was centrifuged at 13 000 rcf and 4 °C for 5 min. 160 µL of the supernatant were transferred to 75 µL 2 M KOH to neutralise the solution. The neutralisation step was checked using pH paper and the pH was adjusted if necessary. […]
The kinetic parameters were determined using the natural substrate lactose. […]
For the determination of the KM values of P. wynnii beta-galactosidase lactose concentrations ranged from 0.76 mM to 97.5 mM. […] The enzyme activities were measured under initial reaction velocity conditions of the enzyme. The reaction times for the initial velocity of the enzymes were determined in previous experiments. The kinetic parameter KM was analysed using the Enzyme Kinetics Module in SigmaPlot 12.5 (Systat Software, Inc., San Jose, USA). […]

[2] = system: Metagenome M1 beta-galactosidase (metagenome beta-galactosidase 3J33 as described in EP 2 530 148 A1); test: Turnover number with lactose as substrate; type: biochemical; conditions: 8 °C
Protocol: To determine the turnover number, the specific activity of the enzymes on lactose at 8 °C was determined. The following formula was used to determine the turnover number: Kcat = (Vmax)/([E]) [s^−1] [formula] • Kcat = turnover number [s^-1] • Vmax = maximum activity [nkat/mg] • [E] = enzyme concentration […]
In Table 9, the calculated turnover numbers of the two beta-galactosidases are depicted. Table 9: Turnover numbers of the beta-galactosidases M1 and P. wynnii (8 °C, lactose as substrate)

[3] = system: Metagenome M1 beta-galactosidase (metagenome beta-galactosidase 3J33 as described in EP 2 530 148 A1); conditions: 8 °C, read-out: KM,lactose, cited from earlier work
[4] = system: Bacillus circulans beta-galactosidase; conditions: phosphate buffer, 40 °C; read-out: KM,lactose; cited from earlier work
[5] = system: beta-galactosidase PbGal2A from P. barengoltzii; conditions: read-out: KM,lactose, cited from earlier work
[6] = molecular target: T1, P. wynnii beta-galactosidase (SEQ ID NO: 1); test: Influence of galactose on the enzyme activity, lactose assay; type: biochemical; conditions: 8 °C
Protocol: (§1) For the substrate solution 400 mM lactose was dissolved in Novo buffer (the composition of which is depicted in Table 4). The beta-galactosidase activity was determined in a thermo shaker in 1.5 mL reaction tubes at 8°C. The enzyme mix and the lactose solution were preincubated at 8 °C for 12 min. To start the enzymatic reaction 100 µL of the enzyme mix were added to 100 µL lactose solution. The reaction was carried out for 5 min at 8 °C. The reaction was stopped by adding 300 µL 1 M HClO4 to the enzyme-substrate-mix. The mix was kept on ice for 5 min before it was centrifuged at 13 000 rcf and 4 °C for 5 min. 160 µL of the supernatant were transferred to 75 µL 2 M KOH to neutralise the solution. The neutralisation step was checked using pH paper and the pH was adjusted if necessary. The solution was kept on ice for another 5 min before it was centrifuged at 13 000 rcf at 4 °C for 5 min. All assays were performed in triplicate. Table 4: Composition of Novo buffer
(§2) The influence of galactose was investigated with P. wynnii beta-galactosidase and the commercial beta-galactosidase Opti-Lactase (Optiferm GmbH, Oy-Mittelberg (D)). The determination of the enzyme activity in Novo buffer was conducted with a lactose concentration of 125 mM and 50 mM respectively. To this solutions 125 or 200 mM galactose were added. The determination of the enzyme activity was performed as described above.
(§3) First, 125 and 200 mM galactose respectively were added to 125 mM lactose (A). The enzyme activity of the technical enzyme preparation decreased with increasing galactose concentration. An activity of 51.8 % was determined. […] In another experiment 200 mM galactose was added to 50 mM lactose (B). Here, the same effect as in (A) could be observed.

[7] = molecular target: commercial beta-galactosidase Opti-Lactase (K. lactis) (Kluyveromyces lactis, UniProt P00723); test: as above; type: biochemical; conditions: 200 mM galactose, 8 °C, substrate Lactose
commercial beta-galactosidase Opti-Lactase (K. lactis), sequence (P00723 whole entry): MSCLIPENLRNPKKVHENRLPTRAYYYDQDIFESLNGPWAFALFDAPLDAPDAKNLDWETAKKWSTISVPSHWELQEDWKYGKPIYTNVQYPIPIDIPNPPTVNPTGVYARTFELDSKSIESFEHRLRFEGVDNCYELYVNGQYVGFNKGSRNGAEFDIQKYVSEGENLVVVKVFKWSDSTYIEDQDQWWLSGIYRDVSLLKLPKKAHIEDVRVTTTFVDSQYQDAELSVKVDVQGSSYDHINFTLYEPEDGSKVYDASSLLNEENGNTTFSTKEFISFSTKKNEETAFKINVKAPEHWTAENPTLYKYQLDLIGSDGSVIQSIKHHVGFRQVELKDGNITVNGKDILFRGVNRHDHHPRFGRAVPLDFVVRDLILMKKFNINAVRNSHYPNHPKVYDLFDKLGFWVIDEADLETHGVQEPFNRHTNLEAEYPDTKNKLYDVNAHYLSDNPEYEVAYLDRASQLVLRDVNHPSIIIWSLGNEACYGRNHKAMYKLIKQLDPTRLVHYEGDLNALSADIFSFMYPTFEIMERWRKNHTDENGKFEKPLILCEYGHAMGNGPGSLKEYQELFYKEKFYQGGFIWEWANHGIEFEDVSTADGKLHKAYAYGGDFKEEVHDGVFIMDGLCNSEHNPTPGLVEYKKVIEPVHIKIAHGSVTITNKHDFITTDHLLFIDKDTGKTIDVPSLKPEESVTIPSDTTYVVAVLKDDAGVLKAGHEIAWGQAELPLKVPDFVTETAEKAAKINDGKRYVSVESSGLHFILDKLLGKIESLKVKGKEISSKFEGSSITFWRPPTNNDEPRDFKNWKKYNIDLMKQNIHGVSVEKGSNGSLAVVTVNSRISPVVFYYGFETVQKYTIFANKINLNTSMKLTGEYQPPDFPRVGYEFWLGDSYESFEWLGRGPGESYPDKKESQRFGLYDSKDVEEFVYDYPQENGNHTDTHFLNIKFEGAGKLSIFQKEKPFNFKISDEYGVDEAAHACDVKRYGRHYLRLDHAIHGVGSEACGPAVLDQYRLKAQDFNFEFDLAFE
Protocol: as §1, §2, §3

[8] = system: Metagenome M1 beta-galactosidase (metagenome beta-galactosidase 3J33 as described in EP 2 530 148 A1); test: Influence of glucose and galactose on the enzyme activity, oNPGal assay; type: biochemical; conditions: 200 mM galactose, 37 °C, substrate oNPGal
Protocol: (§4) The enzyme activity of beta-galactosidase was determined in 1.2 mL scale using oNPGal as substrate at 37 °C. For the assays a final concentration of 25 mM oNPGal dissolved in 100 mM potassium phosphate buffer (pH 6.75 containing 5 mM magnesium chloride) was used. Substrate and enzyme solution were preheated separately. The reaction was performed in a temperature-controlled cuvette using a spectrophotometer by adding enzyme solution to oNPGal solution. The increase of absorbance at 405 nm as result of o-nitrophenol release was measured for 2 min. The activity was calculated from the slope of the straight line.
(§5) Due to the experimental setup (analysis), it was not possible to measure the influence of glucose with the natural substrate lactose.

[9] = molecular target: T1, P. wynnii beta-galactosidase (SEQ ID NO: 1); test: as above; type: biochemical; conditions: pH 6.75, 200 mM Galactose, 37 °C, read-out: Relative enzyme activity
Protocol: as §4, §5

[10] = system: Metagenome M1 beta-galactosidase (metagenome beta-galactosidase 3J33 as described in EP 2 530 148 A1); test: Influence of galactose on the enzyme activity, lactose assay; type: biochemical; conditions: 8 °C; for Relative enzyme activity: Lactose-Assay
Protocol: as §1
The influence of galactose was also investigated with the metagenome M1 beta-galactosidase as described before. The determination of the enzyme activity in Novo buffer was conducted with a lactose concentration of 125 mM and 50 mM respectively. To this solutions 125 or 200 mM galactose were added.

[11] = molecular target: K. lactis beta-galactosidase (Kluyveromyces lactis, UniProt P00723); conditions: 200 mM galactose, 37 °C, substrate oNPGal; cited from earlier work
K. lactis beta-galactosidase, sequence (P00723 whole entry): as above

[12] = system: P. barengoltzii beta-galactosidase; conditions: 200 mM galactose, 45 °C, substrate oNPGal; cited from earlier work

## OC[C@H]1O[C@@H](O[C@H]2[C@H](O)[C@@H](O)C(O)O[C@@H]2CO)[C@H](O)[C@@H](O)[C@H]1O (stereo partly drawn) [lactose]
[1]
  Km: 0.34 to 0.52 mM
[2]
  Turnover number (Kcat): 2.466 s⁻¹
[3]; Novo buffer
  Km: 1.44 mM
[3]; milk + Novo buffer
  Km: 2.1 mM
[4]
  Km: 16 mM
[5]; MOPS buffer, 45 °C
  Km: 43.3 mM
[5]
  Km: 43.3 ± 1.84 mM

## OC[C@H]1OC(O)[C@H](O)[C@@H](O)[C@H]1O (stereo partly drawn) [galactose, D-galactose]
[6]; 200 mM galactose, substrate Lactose
  activity at 200000 µM: 100%
[6]; 5 min, 50 mM lactose + 200 mM galactose, Lactose-Assay, read-out: Relative enzyme activity
  remaining activity at 200000 µM: 110%
[6]; 5 min, 125 mM lactose + 125 mM galactose, Lactose-Assay, read-out: Relative enzyme activity
  remaining activity at 125000 µM: 108%
[6]; 5 min, 125 mM lactose + 200 mM galactose, Lactose-Assay, read-out: Relative enzyme activity
  remaining activity at 200000 µM: 115%
[6]; galactose up to 200 mM, Novo buffer, lactose as substrate
  inhibition by galactose: No inhibition; also recorded: did not have an inhibitory effect
[7]
  activity at 200000 µM: 32.5%
[8]
  Influence of galactose (200 mM): 100 % EA
[9]
  remaining activity at 200000 µM: 118%
[10]; 50 mM lactose + 200 mM galactose
  Relative enzyme activity: 100%
[10]; 125 mM lactose + 125 mM galactose
  Relative enzyme activity: 97%
[10]; 125 mM lactose + 200 mM galactose
  Relative enzyme activity: 101%
[10]; 125 or 200 mM galactose, 125 or 50 mM lactose, Novo buffer
  inhibition by galactose: did also not have an inhibitory effect
[11]
  Influence of galactose (200 mM): 75 % EA
[12]
  Influence of galactose (200 mM): 43.27 % EA
